Data published in US20070191374A1, “Substituted cinnolin-4-ylamines” (Neurogen Coroperation, priority 2004, published 2007).

Assays:
human capsaicin receptor = target: T1, human capsaicin receptor (Homo sapiens, UniProt Q8NER1); assay: Calcium mobilization assay; type: cell-based; conditions: cells expressing human capsaicin receptor, FLUO-3 fluorescence; positive control in agonist assay; read-out: approximate EC90 concentration
T1 construct: pBK-CMV expression construct encoding the full length human capsaicin receptor; expressed in transfected cells
Description: This Example illustrates representative calcium mobilization assays for use in evaluating test compounds for agonist and antagonist activity.
The culture medium is emptied from the 96 well plates and FLUO-3 AM calcium sensitive dye (Molecular Probes, Eugene, Oreg.) is added to each well (dye solution: 1 mg FLUO-3 AM, 440 μL DMSO and 440 μl 20% pluronic acid in DMSO, diluted 1:250 in Krebs-Ringer HEPES (KRH) buffer (25 mM HEPES, 5 mM KCl, 0.96 mM NaH2PO4, 1 mM MgSO4, 2 mM CaCl2, 5 mM glucose, 1 mM probenecid, pH 7.4), 50 μl diluted solution per well). Plates are covered with aluminum foil and incubated at 37° C. for 1-2 hours in an environment containing 5% CO2. […]
To measure the ability of a test compound to agonize or antagonize a calcium mobilization response in cells expressing capsaicin receptors to capsaicin or other vanilloid agonist, the EC50 of the agonist capsaicin is first determined. […] Capsaicin-induced calcium mobilization is monitored using either FLUOROSKAN ASCENT (Labsystems; Franklin, Mass.) or FLIPR (fluorometric imaging plate reader system; Molecular Devices, Sunnyvale, Calif.) instruments. […] In this equation, y is the maximum fluorescence signal, x is the concentration of the agonist or antagonist (in this case, capsaicin), a is the Emax, b corresponds to the EC50 value and c is the Hill coefficient. […]

VR = VR (Homo sapiens, UniProt Q8NER1); conditions: typical value, background section; read-out: K; value (binds to VR); cited from earlier work
Sequence of VR (Q8NER1 whole entry): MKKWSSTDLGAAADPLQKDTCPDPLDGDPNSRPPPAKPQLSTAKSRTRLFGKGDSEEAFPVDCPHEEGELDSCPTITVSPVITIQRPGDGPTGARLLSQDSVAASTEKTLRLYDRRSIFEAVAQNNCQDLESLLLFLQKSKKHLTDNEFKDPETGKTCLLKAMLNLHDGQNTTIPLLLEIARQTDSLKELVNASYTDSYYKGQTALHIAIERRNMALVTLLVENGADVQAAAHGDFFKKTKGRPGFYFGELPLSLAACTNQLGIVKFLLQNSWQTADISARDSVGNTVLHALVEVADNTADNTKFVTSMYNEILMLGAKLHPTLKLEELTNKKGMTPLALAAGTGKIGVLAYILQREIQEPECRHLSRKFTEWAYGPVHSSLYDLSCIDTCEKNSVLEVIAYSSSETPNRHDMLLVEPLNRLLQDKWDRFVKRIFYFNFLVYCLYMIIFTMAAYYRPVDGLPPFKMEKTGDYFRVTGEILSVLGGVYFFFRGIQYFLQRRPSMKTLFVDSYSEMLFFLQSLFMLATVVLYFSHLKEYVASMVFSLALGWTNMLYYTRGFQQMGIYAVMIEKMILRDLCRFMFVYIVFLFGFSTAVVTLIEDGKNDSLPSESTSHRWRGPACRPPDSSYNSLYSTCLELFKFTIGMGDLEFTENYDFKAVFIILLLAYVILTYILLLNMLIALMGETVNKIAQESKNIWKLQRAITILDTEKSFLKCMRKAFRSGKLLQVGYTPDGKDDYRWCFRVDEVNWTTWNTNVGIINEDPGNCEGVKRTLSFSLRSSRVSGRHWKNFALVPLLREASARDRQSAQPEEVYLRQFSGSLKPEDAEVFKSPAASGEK

T1 sequence (Q8NER1 whole entry): as above

SMILES	EC90 (human capsaicin receptor) [nM]	Ki (VR) [nM]
COc1cc(CNC(=O)CCCC/C=C/C(C)C)ccc1O [capsaicin]	~100	
Cl.Cl.Cl.Cl.Cl.Cl.N.N.N.N.N.N.N.N.N.N.N.N.N.N.[O-2].[O-2].[Ru+3].[Ru+3].[Ru+4] [ruthenium red]		≥ 140000
